Reference: patent publication US11208385B2, “N-substituted imidazole carboxylate compound, preparation method and use” (priority 2017, dated 2021)
Where two headings read alike, the source gives them in different places.

Experiments:
SD rats [1] = test system: SD rats
Description: 150 male SD rats weighing 250˜300 g were randomly divided into 15 groups, 10 rats for one group. […] Drugs were injected to rats via caudal vein, and the injection time was 15 seconds. The abolition of righting reflex for 30 s or above was used as the indicator producing anaesthetic effect.

SD rats [2] = test system: SD rats; remark: listed apart in the source
Description: 30 male SD rats weighing 250˜300 g were randomly divided into 6 groups, 5 rats for one group. […] Each drug was continually infused to rats via caudal vein, and made the righting reflex abolish, and the abolition of righting reflex was maintained for 1 hour. The wake time after drug withdrawal and the time of full recovery were recorded.

[3] = In vitro degradation experiment in rat liver homogenate (HPLC); format: in vitro ADME; conditions: for Residual rate at 5 min (%) / Residual rate at 10 min (%) / Residual rate at 20 min (%): rat liver homogenate, 37° C., 50 μg/mL
Description: In Vitro Degradation Experiment of Compounds.
Chromatographic condition: mobile phase is methanol: H2O=65:35, and the water phase contains 0.06% ammonium acetate; the flow rate is 1 mL/min; the column temperature is 25° C.
Apparatus: Agilent 1100 Series. Chromatographic column: Aglent Eclipse Plus C18 column, 5 μm 4.6*[…].
The linear range is 1-50 μg/mL.
After fasting for 24 h, male SD rats were treated to collect liver, and the water on the surface of liver was removed using the filter paper, then liver was weighed. […] Then, the homogenate was centrifugated at 10000 g for 20 min at the temperature of 4° C. The supernatant solution was collected, and 14 samples (2 mL) of liver homogenate were taken out and warmed to 37° C. in water bath. Each compound (content 10 mg/mL, 10 μl) was added, respectively, to make a concentration of 50 μg/mL in liver homogenate.
[…] After centrifugation, the supernatant solution was taken out and injected. The concentration of each compound at each time point was detected, that was divided by the initial concentration of each compound, to obtain the degradation ratio of each compound.

corticosterone = assay: Serum corticosterone after dexamethasone suppression and ACTH stimulation in rats (ELISA); conditions: ACTH stimulation
Description: Male rats (250˜300 g) were chosen as test animals, and the content of corticosterone in serum of rats was measured using ELISA kit and ELISA reader. 65 SD rats were randomly divided into 13 groups, five rats for each group. […] 30 min After administration of ACTH, the concentrations of two cortical hormones in animal body were determined.

11-β hydroxylase = target: T1, 11-β hydroxylase (Homo sapiens, UniProt P15538); conditions: 11-β hydroxylase versus GABAA receptor; cited from earlier work
T1 sequence (P15538 25-503): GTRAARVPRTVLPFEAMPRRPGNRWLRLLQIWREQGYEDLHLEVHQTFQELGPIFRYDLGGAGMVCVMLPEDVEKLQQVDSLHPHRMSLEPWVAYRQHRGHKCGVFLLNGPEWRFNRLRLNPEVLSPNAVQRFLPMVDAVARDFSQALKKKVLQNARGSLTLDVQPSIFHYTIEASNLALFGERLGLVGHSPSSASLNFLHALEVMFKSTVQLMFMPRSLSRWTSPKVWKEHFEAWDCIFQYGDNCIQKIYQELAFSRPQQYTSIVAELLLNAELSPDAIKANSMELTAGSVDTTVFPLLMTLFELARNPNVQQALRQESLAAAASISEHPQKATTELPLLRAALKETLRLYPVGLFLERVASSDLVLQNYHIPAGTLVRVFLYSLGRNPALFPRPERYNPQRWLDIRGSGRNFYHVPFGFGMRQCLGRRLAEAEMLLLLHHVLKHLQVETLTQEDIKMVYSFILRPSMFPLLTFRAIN

[4] = in vivo, 3 mg/kg; cited from earlier work
[5] = single iv dose of 2ED50, 10 rats per group
[6] = single iv dose of 2ED50, from abolition to recovery of righting reflex
[7] = single iv dose of 2ED50, from recovery of righting reflex to free walk
[8] = after 1 h continual infusion, from recovery of righting reflex to free walk
[9] = after 1 h continual infusion, recovery time of righting reflex after discontinuance

Row | Structure (SMILES) | Incidence rate (%) of muscle tremor (SD rats [1]; [5]) [%] | Time of keeping anaesthesia (SD rats [1]; [6]) [min] | Time of complete recovery (SD rats [1]; [7]) | Time of complete recovery (SD rats [2]; [8]) [min] | Wake time after drug withdrawal (SD rats [2]; [9]) [min] | Incidence rate (%) of muscle tremor (SD rats [2]; continual infusion for 1 h) [%] | Residual rate at 5 min (%) [3] [%] | Residual rate at 10 min (%) [3] [%] | Residual rate at 20 min (%) [3] [%] | further results
1 | CC(C)OC(=O)OCOC(=O)c1cncn1[C@H](C)c1ccccc1 [Example 12] | 0 | 2.2 ± 0.5 | 1.2 ± 0.6 min | – | – | – | – | – | – | –
2 | CCOC(=O)OCOC(=O)c1cncn1[C@H](C)c1ccccc1 [Example 2] | 0 | 1 ± 0.5 | 2.5 ± 0.4 min | 3.1 ± 1.8 | 3.1 ± 1.2 | 0 | 0 | 0 | 0 | –
3 | COC(=O)CCOC(=O)c1cncn1[C@H](C)c1ccccc1 [MOC-ET, reference compound] | – | – | – | – | – | – | 0 | 0 | 0 | Cortex function of test animals after drug withdrawal (corticosterone; 30 min after drug withdrawal): obviously recovered
4 | CC(C)OC(=O)OCOC(=O)c1cncn1[C@H](C)c1ccccc1 [Example 3] | 0 | 2.1 ± 0.3 | 1.3 ± 0.5 min | 1.9 ± 0.9 | 3.4 ± 1.1 | 0 | 0 | 0 | 0 | –
5 | CC(C)COC(=O)OCOC(=O)c1cncn1[C@H](C)c1ccccc1 [Example 5] | 10 | 3 ± 1.1 | 3.3 ± 2.1 min | 3.9 ± 2.6 | 6.2 ± 1.2 | 10 | 0 | 0 | 0 | –
6 | CC[C@@H](C)OC(=O)OCOC(=O)c1cncn1[C@H](C)c1ccccc1 [Example 16] | 0 | 3.1 ± 0.4 | 2.1 ± 0.5 min | 2.1 ± 0.5 | 4.5 ± 2.2 | 0 | 3.2 | 0 | 0 | –
7 | CCC(C)OC(=O)OCOC(=O)c1cncn1[C@H](C)c1ccccc1 (stereo partly shown) [Example 11] | 0 | 2.8 ± 1.1 | 2.1 ± 1.2 min | – | – | – | – | – | – | –
8 | CCOC(=O)c1cncn1[C@H](C)c1ccccc1 [Etomidate, reference compound] | 40 | 6.3 ± 2.8 | 7.2 ± 1.7 min | 85 ± 29 | 18 ± 10 | 60 | 97.9 | 95.9 | 95.9 | Onset of anaesthesia (SD rats [1]; equivalent dose of anesthesia): immediately anesthetize the rats; Decomposition under the action of liver homogenate of rats ([3]; comparative experiment): slowly decomposed; Effect on self-synthesis of adrenal cortical hormones (corticosterone): significantly suppress; Combining capacity with 11-β hydroxylase relative to GABAA receptor (11-β hydroxylase): 100 times; Minimum effective concentration producing anaesthetic effect in plasma [4]: 200 ng/mL; Minimum effective concentration to inhibit the synthesis of cortical hormones [4]: 8 ng/mL; Time of maintaining the drug concentration of >8 ng/mL in plasma [4]: 8 h; Time of maintaining the drug concentration of >200 ng/mL in plasma [4]: 8 min
9 | CCC(C)OC(=O)OCOC(=O)c1cncn1[C@H](C)c1ccccc1 (stereo partly shown) [Example 6] | 0 | 2.4 ± 0.6 | 1.7 ± 0.4 min | 2.1 ± 1.5 | 3.1 ± 1.9 | 0 | 4.7 | 0.9 | 0 | –
10 | C[C@H](c1ccccc1)n1cncc1C(=O)OCOC(=O)OC(C)(C)C [Example 4] | 0 | 8.3 ± 1.4 | 6.1 ± 1.6 min | 90 ± 37 | 25 ± 24 | 20 | 89.3 | 60.1 | 43.6 | –
11 | CC[C@H](C)OC(=O)OCOC(=O)c1cncn1[C@H](C)c1ccccc1 [Example 17] | 0 | 2.2 ± 0.3 | 1.6 ± 0.2 min | – | – | – | 3.1 | 0 | 0 | –
12 | CCC(C)OC(=O)OCOC(=O)c1cncn1[C@H](C)c1ccccc1.Cl (stereo partly shown) [Example 10] | 0 | 2.5 ± 0.7 | 2.0 ± 0.9 min | – | – | – | – | – | – | –
13 | COC(=O)OCOC(=O)c1cncn1[C@H](C)c1ccccc1 [Example 1] | 0 | 1.5 ± 0.6 | 1.4 ± 0.5 min | 4.1 ± 1.1 | 2.1 ± 1.1 | 0 | 0 | 0 | 0 | –
14 | CCC(OC(=O)OC(C)C)OC(=O)c1cncn1[C@H](C)c1ccccc1 (stereo partly shown) [Example 28] | 0 | 3.5 ± 1.1 | 2.1 ± 0.5 min | 22.5 ± 4.8 | 10.1 ± 2.3 | 0 | 5.3 | 0 | 0 | –
15 | C[C@H](c1ccccc1)n1cncc1C(=O)OCOC(=O)OC(C(F)(F)F)C(F)(F)F [Example 9] | 0 | 8.1 ± 2.3 | 7.2 ± 2.9 min | 55 ± 38 | 20 ± 14 | 0 | 72.1 | 50.3 | 39.8 | –
16 | CC(C)OC(=O)OC(C)OC(=O)c1cncn1[C@H](C)c1ccccc1 (stereo partly shown) [Example 8] | 10 | 2.3 ± 0.3 | 1.9 ± 1^ min | 1.8 ± 0.6 | 4.9 ± 2.7 | 10 | 2.1 | 0 | 0 | –
17 | COC(=O)C1(OC(=O)c2cncn2[C@H](C)c2ccccc2)CC1 [CPMM, reference compound] | – | – | – | – | – | – | 0 | 0 | 0 | Incidence rate (%) of muscle tremor (SD rats [1]; male, SD, rat, in vivo, iv): 80%; Onset of anaesthesia (SD rats [1]; rat, in vivo): immediately anesthetize the rats; Time of complete recovery (SD rats [1]; rat, in vivo, iv): 2.3 ± 2.1 min; Time of keeping anaesthesia (SD rats [1]; rat, in vivo, iv): 2.5 ± 1.3 min; Incidence rate (%) of muscle tremor (SD rats [2]; male, SD, rat, in vivo): 90%; Time of complete recovery (SD rats [2]; rat, in vivo): 25 ± 9 min; Wake time after drug withdrawal (SD rats [2]; rat, in vivo): 12 ± 7 min
